Target: T1, RIP1 (Homo sapiens, UniProt Q13546)
T1 sequence (Q13546 1-671): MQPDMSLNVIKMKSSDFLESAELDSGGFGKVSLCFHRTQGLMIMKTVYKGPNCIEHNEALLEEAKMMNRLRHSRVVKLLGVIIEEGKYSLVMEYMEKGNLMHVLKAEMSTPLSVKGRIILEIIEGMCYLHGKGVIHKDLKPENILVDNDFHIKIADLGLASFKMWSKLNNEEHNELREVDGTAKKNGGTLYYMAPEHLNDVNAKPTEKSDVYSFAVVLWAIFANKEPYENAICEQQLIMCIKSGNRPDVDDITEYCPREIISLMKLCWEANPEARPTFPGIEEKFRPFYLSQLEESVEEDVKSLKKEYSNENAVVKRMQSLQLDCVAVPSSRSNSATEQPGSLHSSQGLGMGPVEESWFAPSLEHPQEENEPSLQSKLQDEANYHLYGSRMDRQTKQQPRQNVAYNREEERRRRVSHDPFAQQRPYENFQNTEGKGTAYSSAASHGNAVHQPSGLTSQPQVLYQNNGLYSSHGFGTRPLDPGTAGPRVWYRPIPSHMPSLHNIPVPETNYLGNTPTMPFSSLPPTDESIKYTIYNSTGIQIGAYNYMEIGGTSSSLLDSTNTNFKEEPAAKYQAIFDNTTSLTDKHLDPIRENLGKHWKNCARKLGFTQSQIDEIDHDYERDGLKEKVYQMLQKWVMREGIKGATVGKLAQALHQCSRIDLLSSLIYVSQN
Experiment: Cellular RIP1 inhibitory activity: HT-29 necroptosis (TNFα/SMAC mimetic/zVAD-FMK) CellTiter-Glo viability assay
Type: cell-based
Conditions: HT-29 cells, TNF-α 10 ng/ml + SMAC mimetic 6 μM + zVAD-FMK 10 μM, 20 hours, geometric mean, read-out: EC50 Values of in vitro Cellular RIP1 Inhibitory Activity
Method: Compounds 1-99 (denoted as Cmpd Nos. 1 through 99 in Table 2 below) of the disclosure were tested for binding and cellular RIP1 inhibitory activity following the experimental procedures described below. Cell Seeding • 1. HT-29 cells were checked every day to make sure that they were healthy and growing as expected. They were subjected to sub-culturing when they were approximately 80% confluent. • 2. The culture medium, McCOY's 5 A medium (Gibco, Cat No. 16600-082) with 10% fetal bovine serum or FBS (Gibco, Cat No. 10099-141C), was pre-warmed in a 37° C. water bath for at least 30 min. • 3. When the cells had reached a desired level of confluency of 80% in a T75 flask, the medium was aspirated, and the cells were washed with warm phosphate buffered saline or PBS two times. • 4. 2-3 ml fresh warm trypsin (Gibco, Cat No. 25200-056) solution was added to the washed cells. The flask with the cells was transferred to a 37° C. incubator. • 5. After 5 minutes, the side of the flask was tapped, and the flask was examined under a microscope for detachment of the cells to the flask. If necessary, the cells were kept in the incubator for an additional 5-10 minutes, with occasional tapping, until lifting was complete. • 6. The trypsin reaction was neutralized by transferring 6-9 ml cell culture medium to sterile 15 ml conical tubes, and by centrifuging the cell culture at 300×g for 7 minutes to pellet the cells (supernatant decanted). • 7. The cells were resuspended in fresh cell culture medium and the cell counting was performed using a hemocytometer. • 8. 100 μl of the resuspended cell culture medium containing ˜5,000 cells were transferred into each well of the sterile 96-well cell culture plate (Corning 3903) and cultured overnight at 37° C. with 5% CO2. Compound Titration and Treatment • 1. All test compounds were dissolved in DMSO (Dimethyl sulfoxide) to create a 20 mM stock. • 2. 3 μl of each compound 20 mM stock was mixed with 27 μl DMSO, and the compound solution was further diluted at a titration ratio of 1:3 (20 μl compound solution+40 μl DMSO) till the 10 points end. • 3. All culture medium was removed from assay plates filled with HT-29 cell cultures. […] 0.5 μL of the diluted compound solution was added to the corresponding 96-well assay plates. • 5. The assay plates were incubated for 20 hours at 37° C. with 5% CO2. Cell Viability Detection • 1. The CellTiter-Glo® Luminescent Cell Viability Assay was employed to detect the ATP levels of viable HT-29 cells. • 2. The CellTiter-Glo® buffer and the lyophilized substrate were equilibriated to room temperature prior to use. • 3. The CellTiter-Glo® substrate was resuspended with CellTiter-Glo® buffer, then mixed by gently vortexing to obtain a homogeneous solution. • 4. 20 μl the enzyme/substrate mixture was transferred by multi-channel pipetting into 96-well assay plates. • 5. The assay plates were placed on an orbital shaker and the contents were shaken for 3 minutes to induce cell lysis. • 6. The assay plates were incubated at room temperature for 10 minutes to stabilize the luminescent signal. • 7. The luminescence signals were read and recorded with EnVision. • 8. The geometric mean EC50 values were calculated from 10 points response dose with duplicates. In Table 2, activity is provided as follows: +++=0.1 nM≤EC50<100 nM; ++=100 nM≤EC50<1000 nM; +=1000 nM≤EC50<10000 nM.

Row | SMILES | EC50
1 | Cc1cnn(C)c1-c1nc(N2CCC(C(=O)N(O)Cc3cnco3)CC2)ncc1F [Compound 23, 1-(4-(1,4-dimethyl-1H-pyrazol-5-yl)-5-fluoropyrimidin-2-yl)-N-hydroxy-N-(oxazol-5-ylmethyl)piperidine-4-carboxamide] | 0.1 to 100 nM
2 | Cc1ncc(CN(O)C(=O)C2CCN(c3ncc(F)c(-c4c(C)cnn4C)n3)CC2)s1 [Compound 24, 1-(4-(1,4-dimethyl-1H-pyrazol-5-yl)-5-fluoropyrimidin-2-yl)-N-hydroxy-N-((2-methylthiazol-5-yl)methyl)piperidine-4-carboxamide] | 0.1 to 100 nM
3 | Cc1cnn(C)c1-c1nc(N2CCC(C(=O)N(O)Cc3cccnc3F)CC2)ncc1F [Compound 25, 1-(4-(1,4-dimethyl-1H-pyrazol-5-yl)-5-fluoropyrimidin-2-yl)-N-((2-fluoropyridin-3-yl)methyl)-N-hydroxypiperidine-4-carboxamide] | 0.1 to 100 nM
4 | Cc1cnn(C)c1-c1nc(N2CCC(C(=O)N(O)Cc3ccc(F)nc3)CC2)ncc1F [Compound 26] | 0.1 to 100 nM
5 | Cc1cnn(C)c1-c1nc(N2CCC(C(=O)N(O)Cc3ccnn3C)CC2)ncc1F [Compound 27, 1-(4-(1,4-dimethyl-1H-pyrazol-5-yl)-5-fluoropyrimidin-2-yl)-N-hydroxy-N-((1-methyl-1H-pyrazol-5-yl)methyl)piperidine-4-carboxamide] | 100 to 1000 nM
6 | Cc1cnn(C)c1-c1nc(N2CCC(C(=O)NCC3CCCCC3)CC2)ncc1F [Compound 28, N-(cyclohexylmethyl)-1-(4-(1,4-dimethyl-1H-pyrazol-5-yl)-5-fluoropyrimidin-2-yl)piperidine-4-carboxamide] | 0.1 to 100 nM
7 | Cc1cnn(C)c1-c1nc(N2CCN(C(=O)N(O)Cc3cc(F)cc(F)c3)CC2)ncc1F [Compound 29, N-(3,5-difluorobenzyl)-4-(4-(1,4-dimethyl-1H-pyrazol-5-yl)-5-fluoropyrimidin-2-yl)-N-hydroxypiperazine-1-carboxamide] | 0.1 to 100 nM
8 | O=C(C1CCN(c2ncc(F)cn2)CC1)N(O)Cc1cc(F)cc(F)c1 [Compound 30, N-(3,5-difluorobenzyl)-1-(5-fluoropyrimidin-2-yl)-N-hydroxypiperidine-4-carboxamide] | 100 to 1000 nM
9 | Cc1cnn(C)c1-c1nc(N2CCC(C(=O)N(O)Cc3ccccn3)CC2)ncc1F [Compound 31, 1-(4-(1,4-dimethyl-1H-pyrazol-5-yl)-5-fluoropyrimidin-2-yl)-N-hydroxy-N-(pyridin-2-ylmethyl)piperidine-4-carboxamide] | 0.1 to 100 nM
10 | Cc1cnn(C)c1-c1nc(N2CCC(C(=O)N(O)Cc3cc(F)cc(C#N)c3)CC2)ncc1F [Compound 32, N-(3-cyano-5-fluorobenzyl)-1-(4-(1,4-dimethyl-1H-pyrazol-5-yl)-5-fluoropyrimidin-2-yl)-N-hydroxypiperidine-4-carboxamide] | 0.1 to 100 nM
11 | Cc1cnn(C)c1-c1nc(N2CCC(C(=O)N(O)Cc3ccccc3)CC2)ncc1F [Compound 33, N-benzyl-1-(4-(1,4-dimethyl-1H-pyrazol-5-yl)-5-fluoropyrimidin-2-yl)-N-hydroxypiperidine-4-carboxamide] | 0.1 to 100 nM
12 | Cc1cnn(C)c1-c1nc(N2CCC(C(=O)N(O)C(C)c3ccccc3)CC2)ncc1F (centres unmarked) [Compound 34, 1-(4-(1,4-dimethyl-1H-pyrazol-5-yl)-5-fluoropyrimidin-2-yl)-N-hydroxy-N-(1-phenylethyl)piperidine-4-carboxamide] | 0.1 to 100 nM
13 | Cc1cnn(C)c1-c1nc(N2CCC(C(=O)N[C@@H](CO)c3ccccc3)CC2)ncc1F [Compound 35, (R)-1-(4-(1,4-dimethyl-1H-pyrazol-5-yl)-5-fluoropyrimidin-2-yl)-N-(2-hydroxy-1-phenylethyl)piperidine-4-carboxamide] | 0.1 to 100 nM
14 | Cc1cnn(C)c1-c1nc(N2CCC(C(=O)N[C@H](CO)c3ccccc3)CC2)ncc1F [Compound 36, (S)-1-(4-(1,4-dimethyl-1H-pyrazol-5-yl)-5-fluoropyrimidin-2-yl)-N-(2-hydroxy-1-phenylethyl)piperidine-4-carboxamide] | 1000 to 10000 nM
15 | Cc1cnn(C)c1-c1nc(N2CCC(C(=O)N(O)Cc3cncc(F)c3)CC2)ncc1F [Compound 37, 1-(4-(1,4-dimethyl-1H-pyrazol-5-yl)-5-fluoropyrimidin-2-yl)-N-((5-fluoropyridin-3-yl)methyl)-N-hydroxypiperidine-4-carboxamide] | 0.1 to 100 nM
16 | Cc1cnn(C)c1-c1nc(N2CCC(C(=O)N(O)Cc3cccnc3)CC2)ncc1F [Compound 38, 1-(4-(1,4-dimethyl-1H-pyrazol-5-yl)-5-fluoropyrimidin-2-yl)-N-hydroxy-N-(pyridin-3-ylmethyl)piperidine-4-carboxamide] | 0.1 to 100 nM
17 | Cc1cnn(C)c1-c1nc(N2CCC(C(=O)N(O)Cc3nccn3C)CC2)ncc1F [Compound 39, 1-(4-(1,4-dimethyl-1H-pyrazol-5-yl)-5-fluoropyrimidin-2-yl)-N-hydroxy-N-((1-methyl-1H-imidazol-2-yl)methyl)piperidine-4-carboxamide] | 1000 to 10000 nM
18 | Cc1cnn(C)c1-c1nc(N2CCC(C(=O)N(O)Cc3cncn3C)CC2)ncc1F [Compound 40, 1-(4-(1,4-dimethyl-1H-pyrazol-5-yl)-5-fluoropyrimidin-2-yl)-N-hydroxy-N-((1-methyl-1H-imidazol-5-yl)methyl)piperidine-4-carboxamide] | 1000 to 10000 nM
19 | Cc1cnn(C)c1-c1cc(N2CCC(C(=O)N(O)Cc3cc(F)cc(F)c3)CC2)ncn1 [Compound 41, N-(3,5-difluorobenzyl)-1-(6-(1,4-dimethyl-1H-pyrazol-5-yl)pyrimidin-4-yl)-N-hydroxypiperidine-4-carboxamide] | 0.1 to 100 nM
20 | Cc1cnn(C)c1-c1cc(N2CCC(C(=O)NCc3cc(F)cc(F)c3)CC2)ncn1 [Compound 42, N-(3,5-difluorobenzyl)-1-(6-(1,4-dimethyl-1H-pyrazol-5-yl)pyrimidin-4-yl)piperidine-4-carboxamide] | 100 to 1000 nM
21 | Cc1cnn(C)c1-c1nc(N2CCC(C(=O)NCc3cc(C)n(C)n3)CC2)ncc1F [Compound 43, N-((1,5-dimethyl-1H-pyrazol-3-yl)methyl)-1-(4-(1,4-dimethyl-1H-pyrazol-5-yl)-5-fluoropyrimidin-2-yl)piperidine-4-carboxamide] | 1000 to 10000 nM
22 | Cc1cnn(C)c1-c1nc(N2CCC(C(=O)NCc3ccn(C)n3)CC2)ncc1F [Compound 44, 1-(4-(1,4-dimethyl-1H-pyrazol-5-yl)-5-fluoropyrimidin-2-yl)-N-((1-methyl-1H-pyrazol-3-yl)methyl)piperidine-4-carboxamide] | 1000 to 10000 nM
23 | Cc1cnn(C)c1-c1nc(N2CCC(C(=O)NCc3cnn(C)c3)CC2)ncc1F [Compound 45, 1-(4-(1,4-dimethyl-1H-pyrazol-5-yl)-5-fluoropyrimidin-2-yl)-N-((1-methyl-1H-pyrazol-4-yl)methyl)piperidine-4-carboxamide] | 1000 to 10000 nM

Source: patent US20240217963A1, “RECEPTOR-INTERACTING PROTEIN 1 INHIBITORS, PREPARATIONS, AND USES THEREOF” (SIRONAX LTD., priority 2021, published 2024)
